Experiments:
c-Src kinase = biological target: T1, c-Src kinase (Homo sapiens, UniProt P12931); assay: c-Src Kinase Assay; assay type: biochemical; settings: 5 μM ATP
T1 construct: purchased Upstate Biotechnology, Lake Placid, N.Y
Description: A mixture of a 10× kinase buffer (80 mM MOPS at pH 7.0, 2 mM EDTA and 100 mM Magnesium Chloride), ATP (5 μM final from a 10 mM stock), a Cdc2 peptide […] (100 μM final from a 2.5 mM stock), γ-^33P ATP (10 μCi/μL stock) and water (for a total of 20 μL/well) was added to each well of a Streptavidin Flashplate.
Test compound in 100% DMSO (0.5 μL) was added to the appropriate wells. Diluted c-Src kinase (human) (Accession Number SWISS-PROT P12931) (Upstate Biotechnology, Lake Placid, N.Y.) (diluted in a buffer consisting of 20 mM MOPS at pH 7.0, 1 mM EDTA, β-mercaptoethanol (0.1%), Brij-35 (0.01%), glycerol (5%), and 1 mg/mL bovine serum albumin) (2.5 μL) was added to the wells to initiate the reactions. The reaction plates were incubated at 30° C. for 40 min. The reaction was terminated by the addition of a 3% phosphoric acid solution (5 μL). The reaction product (10 μL) was spotted onto a P30 filtermat and washed for 5 minutes in phosphoric acid (75 mM). The wash sequence was repeated two more times, followed with one final wash in methanol. The plates were then dried, sealed and read on the TopCount scintillation counter after adding 30 μL scintillation fluid.
(§1) A maximum and minimum signal for the assay was determined on each plate. The percent inhibition of a test compound was calculated according to the formula: […]
For a series of test concentrations, the IC50 was derived by graphing percent inhibition against the log of the concentrations tested for a given compound with results shown in Table 2
(§2) For compounds with multiple values, each value represents a separate assay result.

[1] = test system: HeLa cervical adenocarcinoma; assay: Cell Proliferation Inhibition Assay (14C-thymidine incorporation), HeLa; assay type: cell-based; settings: Homo sapiens, HeLa, HeLa cells;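 further: test compound in DMSO added to cells seeded in scintillating 96-well plates, DMSO-only wells as control, uptake of methyl 14C-thymidine into new DNA counted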
CDK1 = biological target: T2, CDK1 (Homo sapiens, UniProt P06493); assay: CDK-1 kinase screening assay (33P-ATP FlashPlate); assay type: biochemical; settings: human CDK1 with cyclin B; 10 μM ATP; 1 hr at 30° C
T2 construct: purchased New England Biolabs, Beverly, Mass; 6020; host or cells: insect cells

VEGF-R2 = biological target: T3, VEGF-R2 (Rattus norvegicus, UniProt O08775); assay: VEGF-R2 kinase screening assay (33P-ATP FlashPlate); assay type: biochemical; settings: rat VEGF-R2 kinase domain; 10 μM ATP; 1 hr at 30° C;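 further: Read-out is ³³P incorporation from ³³P-γ-ATP into biotinylated peptide substrate captured on streptavidin FlashPlate, counted by scintillation, 1% DMSO final, inhibition scaled between per-plate maximum and minimum signals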
T3 construct: polyhistidine (N)

Lyn kinase = biological target: T4, Lyn kinase (Homo sapiens, UniProt P07948); assay: Lyn Kinase Assay; assay type: biochemical; settings: 5 μM ATP
T4 construct: purchased Upstate Biotechnology, Lake Placid, N.Y
Description: Test compound in 100% DMSO (0.5 μL) was added to the appropriate wells. Diluted Lyn kinase (human) (Accession Number EMBL M16038) (Upstate Biotechnology, Lake Placid, N.Y.) (diluted in a buffer consisting of 50 mM Tris at pH 7.5, 0.1 mM EGTA, Sodium Vanadate (0.1 mM), β-mercaptoethanol (0.1%) and 1 mg/mL bovine serum albumin) (2.5 μL) was added to the wells to initiate the reactions.
The reaction plates were incubated at 30° C. for 40 min. The reaction was terminated by the addition of a 3% phosphoric acid solution (5 μL). The reaction product (10 μL) was spotted onto a P30 filtermat and washed for 5 minutes in phosphoric acid (75 mM). The wash sequence was repeated two more times, followed with one final wash in methanol. The plates were then dried, sealed and read on the TopCount scintillation counter after adding 30 μL scintillation fluid.
as §1
For a series of test concentrations, the IC50 was derived by graphing percent inhibition against the log of the concentrations tested for a given compound with results shown in Table 3
as §2

HCT-116 colon carcinoma = assay: Cell Proliferation Inhibition Assay (14C-thymidine incorporation), HCT-116; assay type: cell-based; settings: Homo sapiens, HCT-116, HCT-116 cells;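 further: proliferation measured as methyl 14C-thymidine uptake into new DNA, counted in 96-well scintillating microplates, compared with DMSO-only control wells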
HER2 = biological target: T5, HER2 (Homo sapiens, UniProt P04626); assay: HER2 kinase screening assay (33P-ATP FlashPlate); assay type: biochemical; settings: GST-HIS6 HER-2 aa 679 to 1255; 10 μM ATP; 1 hr at 30° C;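 further: Biotin-poly(GT) 4:1 peptide captured on streptavidin FlashPlate, 33P transfer from γ-ATP read by scintillation counting, lower incorporation means inhibition, 1% DMSO final, 100 µL reaction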
T5 construct: GST (Glutathione-S-Transferase) (N); HIS6 (N); thrombin cleavage site (N); purchased Proqinase, Freiburg, Germany

RET = biological target: T6, RET (Homo sapiens, UniProt P07949); assay: RET kinase screening assay (33P-ATP FlashPlate); assay type: biochemical; settings: human RET kinase domain; 10 μM ATP; 1 hr at 30° C;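 further: biotinylated peptide substrate captured on streptavidin FlashPlate, 33P phosphate transfer read by scintillation counting, 1% DMSO, lower incorporation means inhibition, percent relative to per-plate maximum and minimum signals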
T6 construct: polyhistidine (N)
T6 sequence (P07949 658-1114 limits assumed): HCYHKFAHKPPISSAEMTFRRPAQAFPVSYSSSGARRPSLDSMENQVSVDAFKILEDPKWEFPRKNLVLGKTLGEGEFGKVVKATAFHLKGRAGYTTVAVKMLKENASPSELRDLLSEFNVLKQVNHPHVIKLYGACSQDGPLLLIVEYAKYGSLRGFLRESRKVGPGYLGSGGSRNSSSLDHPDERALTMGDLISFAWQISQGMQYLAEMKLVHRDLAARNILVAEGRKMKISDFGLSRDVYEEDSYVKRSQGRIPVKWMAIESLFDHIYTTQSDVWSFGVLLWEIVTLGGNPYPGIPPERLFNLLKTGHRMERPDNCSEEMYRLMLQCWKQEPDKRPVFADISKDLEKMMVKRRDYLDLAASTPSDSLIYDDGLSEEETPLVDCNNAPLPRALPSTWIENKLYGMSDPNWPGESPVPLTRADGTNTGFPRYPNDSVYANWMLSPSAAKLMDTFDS

Aurora-A = biological target: T7, Aurora-A (Mus musculus, UniProt P97477); assay: Aurora-A kinase screening assay (33P-ATP FlashPlate); assay type: biochemical; settings: 10 μM ATP, 1 hr at 30° C;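 further: His-tagged mouse Aurora-A phosphorylating a biotinylated peptide captured on streptavidin plates, read as 33P uptake by scintillation counting, 1% DMSO, inhibition scaled between per-plate maximum and minimum signals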
T7 construct: polyhistidine (N)
T7 sequence (P97477 1-395): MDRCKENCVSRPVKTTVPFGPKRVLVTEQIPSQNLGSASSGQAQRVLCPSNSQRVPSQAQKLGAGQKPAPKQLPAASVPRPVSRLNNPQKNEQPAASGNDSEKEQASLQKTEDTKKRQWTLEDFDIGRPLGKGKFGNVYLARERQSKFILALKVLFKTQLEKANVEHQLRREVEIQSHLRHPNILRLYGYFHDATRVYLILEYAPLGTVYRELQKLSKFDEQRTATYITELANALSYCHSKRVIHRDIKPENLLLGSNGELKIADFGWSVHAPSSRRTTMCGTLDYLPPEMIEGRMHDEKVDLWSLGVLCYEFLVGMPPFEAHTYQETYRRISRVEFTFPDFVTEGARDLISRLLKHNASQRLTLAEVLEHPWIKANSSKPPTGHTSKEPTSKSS

A375 malignant melanoma = assay: Cell Proliferation Inhibition Assay (14C-thymidine incorporation), A375; assay type: cell-based; settings: Homo sapiens, A-375, A375 cells;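 further: proliferation measured by radiolabelled thymidine uptake into new DNA, counted in scintillating 96-well plates, compound-treated wells compared with DMSO-only control wells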

T5 sequence (P04626 679-1255): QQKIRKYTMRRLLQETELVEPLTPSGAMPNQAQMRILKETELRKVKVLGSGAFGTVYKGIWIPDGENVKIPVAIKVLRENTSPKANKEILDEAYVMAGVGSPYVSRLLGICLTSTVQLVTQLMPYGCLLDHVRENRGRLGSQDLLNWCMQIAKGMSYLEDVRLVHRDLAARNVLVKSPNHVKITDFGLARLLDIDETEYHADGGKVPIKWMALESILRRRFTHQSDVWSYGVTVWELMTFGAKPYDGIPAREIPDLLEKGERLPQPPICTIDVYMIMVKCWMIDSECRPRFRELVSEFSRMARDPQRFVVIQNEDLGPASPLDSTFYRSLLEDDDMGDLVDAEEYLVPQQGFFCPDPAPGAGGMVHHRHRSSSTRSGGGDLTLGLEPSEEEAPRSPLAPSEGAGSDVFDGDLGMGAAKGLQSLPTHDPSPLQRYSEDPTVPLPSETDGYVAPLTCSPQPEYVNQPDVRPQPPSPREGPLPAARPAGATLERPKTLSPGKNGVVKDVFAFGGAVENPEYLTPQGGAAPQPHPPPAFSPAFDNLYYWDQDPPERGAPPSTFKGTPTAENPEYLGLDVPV
T1 sequence (P12931 whole entry): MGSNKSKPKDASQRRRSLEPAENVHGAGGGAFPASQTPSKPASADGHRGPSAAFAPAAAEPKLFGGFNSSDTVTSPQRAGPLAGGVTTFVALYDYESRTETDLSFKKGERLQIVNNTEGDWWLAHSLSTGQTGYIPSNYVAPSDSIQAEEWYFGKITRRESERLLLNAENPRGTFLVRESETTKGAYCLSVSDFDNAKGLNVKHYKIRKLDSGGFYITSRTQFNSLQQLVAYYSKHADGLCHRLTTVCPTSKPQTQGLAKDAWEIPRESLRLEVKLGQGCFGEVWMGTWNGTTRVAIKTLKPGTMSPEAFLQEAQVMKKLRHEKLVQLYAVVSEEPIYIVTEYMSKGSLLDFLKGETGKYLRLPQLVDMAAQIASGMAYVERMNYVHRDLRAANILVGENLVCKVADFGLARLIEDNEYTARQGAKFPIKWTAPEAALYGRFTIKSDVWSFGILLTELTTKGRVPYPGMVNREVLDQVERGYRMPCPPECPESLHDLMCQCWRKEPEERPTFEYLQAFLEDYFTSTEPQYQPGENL
T2 sequence (P06493 whole entry): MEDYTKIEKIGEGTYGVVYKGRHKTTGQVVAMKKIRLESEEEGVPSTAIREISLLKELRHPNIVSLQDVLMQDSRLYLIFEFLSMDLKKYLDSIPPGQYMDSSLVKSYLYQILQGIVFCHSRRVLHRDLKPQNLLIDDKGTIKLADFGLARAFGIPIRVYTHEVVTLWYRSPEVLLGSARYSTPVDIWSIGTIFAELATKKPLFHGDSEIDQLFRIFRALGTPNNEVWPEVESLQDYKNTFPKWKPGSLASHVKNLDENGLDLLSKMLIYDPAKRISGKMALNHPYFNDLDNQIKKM
T2 sequence (P14635 whole entry partner): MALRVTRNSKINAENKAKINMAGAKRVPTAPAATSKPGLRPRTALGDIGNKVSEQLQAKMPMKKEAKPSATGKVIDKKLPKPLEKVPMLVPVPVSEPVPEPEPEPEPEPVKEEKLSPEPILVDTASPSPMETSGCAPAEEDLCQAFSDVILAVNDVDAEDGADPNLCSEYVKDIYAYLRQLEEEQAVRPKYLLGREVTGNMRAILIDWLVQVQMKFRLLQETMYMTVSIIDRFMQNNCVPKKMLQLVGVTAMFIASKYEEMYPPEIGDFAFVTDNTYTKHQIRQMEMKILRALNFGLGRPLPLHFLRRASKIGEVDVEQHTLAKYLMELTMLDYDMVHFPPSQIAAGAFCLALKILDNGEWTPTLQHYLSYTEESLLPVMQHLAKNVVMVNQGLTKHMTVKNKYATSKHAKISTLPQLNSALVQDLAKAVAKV
T4 sequence (P07948 whole entry): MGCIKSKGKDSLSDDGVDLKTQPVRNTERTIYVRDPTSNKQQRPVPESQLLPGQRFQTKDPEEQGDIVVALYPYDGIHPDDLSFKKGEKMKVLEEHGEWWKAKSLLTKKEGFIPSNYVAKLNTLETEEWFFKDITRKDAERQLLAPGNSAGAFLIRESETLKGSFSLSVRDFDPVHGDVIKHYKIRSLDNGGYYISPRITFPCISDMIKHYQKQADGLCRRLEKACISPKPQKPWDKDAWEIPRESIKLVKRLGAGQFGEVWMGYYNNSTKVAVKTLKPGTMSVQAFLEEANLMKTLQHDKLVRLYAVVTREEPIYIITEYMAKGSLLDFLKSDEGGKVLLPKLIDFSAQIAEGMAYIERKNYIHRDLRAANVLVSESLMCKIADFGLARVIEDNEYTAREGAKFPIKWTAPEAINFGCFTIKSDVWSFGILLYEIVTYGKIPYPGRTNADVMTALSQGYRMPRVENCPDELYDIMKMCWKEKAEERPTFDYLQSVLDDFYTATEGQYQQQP
T3 sequence (O08775 786-1343): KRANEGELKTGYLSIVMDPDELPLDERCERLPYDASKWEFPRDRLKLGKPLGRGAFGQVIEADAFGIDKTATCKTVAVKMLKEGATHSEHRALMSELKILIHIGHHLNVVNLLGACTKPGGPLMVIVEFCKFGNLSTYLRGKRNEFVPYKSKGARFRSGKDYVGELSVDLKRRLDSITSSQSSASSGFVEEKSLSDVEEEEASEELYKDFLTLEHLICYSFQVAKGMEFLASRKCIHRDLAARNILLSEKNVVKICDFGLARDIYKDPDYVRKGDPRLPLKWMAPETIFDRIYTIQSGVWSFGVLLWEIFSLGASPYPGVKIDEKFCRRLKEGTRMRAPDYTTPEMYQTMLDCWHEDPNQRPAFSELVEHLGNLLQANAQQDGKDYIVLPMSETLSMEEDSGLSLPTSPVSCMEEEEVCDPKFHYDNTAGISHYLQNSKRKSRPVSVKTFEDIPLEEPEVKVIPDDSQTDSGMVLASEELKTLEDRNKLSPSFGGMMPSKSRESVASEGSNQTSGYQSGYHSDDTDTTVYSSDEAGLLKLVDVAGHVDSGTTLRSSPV

Row | Compound | IC50 (c-Src kinase) | IC50 [1] | IC50 (CDK1) | IC50 (VEGF-R2) | IC50 (Lyn kinase) | IC50 (HCT-116 colon carcinoma) | IC50 (HER2) | IC50 (RET) | IC50 (Aurora-A) | IC50 (A375 malignant melanoma)
1 | COCc1cccc2[nH]c(-c3n[nH]c4ncc(-c5ccc(F)nc5)cc34)nc12 [Cpd 71, 5-(6-fluoro-pyridin-3-yl)-3-(4-methoxymethyl-1H-benzoimidazol-2-yl)-1H-pyrazolo[3,4-b]pyridine] | 278 nM | 2260 nM | 375 nM | ~1000 nM | 9010 nM | 283 nM | > 100000 nM | > 100000 nM | > 10000 nM | 150 nM
2 | COCc1cccc2[nH]c(-c3n[nH]c4ncc(-c5cncc(OC)c5)cc34)nc12 [Cpd 64, 3-(4-methoxymethyl-1H-benzoimidazol-2-yl)-5-(5-methoxy-pyridin-3-yl)-1H-pyrazolo[3,4-b]pyridine] | 621 nM | 1570 nM | 80.3 nM | 160 nM | 4060 nM | 26.1 nM | > 100000 nM | > 100000 nM | ~10000 nM | 11.3 nM
3 | COCc1cccc2[nH]c(-c3n[nH]c4ncc(-c5cncc(CO)c5)cc34)nc12 [Cpd 44, {5-[3-(4-methoxymethyl-1H-benzoimidazol-2-yl)-1H-pyrazolo[3,4-b]pyridin-5-yl]-pyridin-3-yl}-methanol] | 288 nM | 771 nM | 88.9 nM | 341 nM | 379 nM | 128 nM | > 100000 nM | ~10000 nM | > 1000 nM | 357 nM
4 | CN1CCN(c2ccc3[nH]c(-c4n[nH]c5ncc(-c6cncc(CN7CCOCC7)c6)cc45)nc3c2)CC1 [Cpd 84, 3-[5-(4-methyl-piperazin-1-yl)-1H-benzoimidazol-2-yl]-5-(5-morpholin-4-ylmethyl-pyridin-3-yl)-1H-pyrazolo[3,4-b]pyridine] | 5.18 nM | 1880 nM | 32.2 nM | ~100 nM | 9.65 nM | 739 nM | 1850 nM | > 1000 nM | 87.3 nM | 2530 nM
5 | CCN(CC)c1ccc(NC(=O)c2cccc3[nH]c(-c4n[nH]c5ncc(-c6cncc7ccccc67)cc45)nc23)c(C)c1 [Cpd 50, 2-(5-isoquinolin-4-yl-1H-pyrazolo[3,4-b]pyridin-3-yl)-1H-benzoimidazole-4-carboxylic acid (4-diethylamino-2-methyl-phenyl)-amide] | 1.04 nM | 258 nM | 40.6 nM | > 100000 nM | 5.21 nM | 455 nM | > 100000 nM | > 10000 nM | 168 nM | 242 nM
6 | CN(C)c1ccc(NC(=O)c2cccc3[nH]c(-c4n[nH]c5ncc(-c6cncc7ccccc67)cc45)nc23)cc1 [Cpd 49, 2-(5-isoquinolin-4-yl-1H-pyrazolo[3,4-b]pyridin-3-yl)-1H-benzoimidazole-4-carboxylic acid (4-dimethylamino-phenyl)-amide] | 1.13 nM | 334 nM | 64.8 nM | > 10000 nM | 4.35 nM | 426 nM | > 100000 nM | ~1000 nM | 154 nM | 302 nM
7 | COCc1cccc2[nH]c(-c3n[nH]c4ncc(-c5ccc(N6CCNCC6)nc5)cc34)nc12 [Cpd 69, 3-(4-methoxymethyl-1H-benzoimidazol-2-yl)-5-(6-piperazin-1-yl-pyridin-3-yl)-1H-pyrazolo[3,4-b]pyridine] | 597 nM | 1730 nM | > 10000 nM | ~1000 nM | 2890 nM | 77 nM | > 100000 nM | > 100000 nM | > 1000 nM | 18.5 nM
8 | COCc1cccc2[nH]c(-c3n[nH]c4ncc(-c5cncc(CNC(C)C)c5)cc34)nc12 [Cpd 43, isopropyl-{5-[3-(4-methoxymethyl-1H-benzoimidazol-2-yl)-1H-pyrazolo[3,4-b]pyridin-5-yl]-pyridin-3-ylmethyl}-amine] | 836 nM | 180 nM | 29.1 nM | 683 nM | 132 nM | 131 nM | > 10000 nM | 2230 nM | 6580 nM | 166 nM
9 | COCc1cccc2[nH]c(-c3nn(C)c4ncc(-c5cncc6ccccc56)cc34)nc12 [Cpd 33, 4-[3-(4-methoxymethyl-1H-benzoimidazol-2-yl)-1-methyl-1H-pyrazolo[3,4-b]pyridin-5-yl]-isoquinoline] | 1170 nM | 1180 nM | 123 nM | > 100000 nM | 1140 nM | 203 nM | > 100000 nM | > 100000 nM | ~100000 nM | 256 nM
10 | CCN(CC)Cc1cccc2[nH]c(-c3n[nH]c4ncc(-c5cccnc5)cc34)nc12 [Cpd 52, diethyl-[2-(5-pyridin-3-yl-1H-pyrazolo[3,4-b]pyridin-3-yl)-1H-benzoimidazol-4-ylmethyl]-amine] | 570 nM | 454 nM | 24.6 nM | 1030 nM | 299 nM | 345 nM | > 100000 nM | ~10000 nM | 3620 nM | 247 nM
11 | O=C(Nc1cccnc1)c1cccc2[nH]c(-c3n[nH]c4ncc(-c5cncc6ccccc56)cc34)nc12 [Cpd 48, 2-(5-isoquinolin-4-yl-1H-pyrazolo[3,4-b]pyridin-3-yl)-1H-benzoimidazole-4-carboxylic acid pyridin-3-ylamide] | 5 nM | 300 nM | 18.5 nM | ~10 nM | 23.6 nM | 488 nM | > 100000 nM | > 10000 nM | ~1000 nM | 188 nM

Source: patent US7541367B2, “3-benzoimidazolyl-pyrazolopyridines useful in treating kinase disorders” (Janssen Pharmaceutica, N.V., priority 2005, dated 2009)
